Where no end group is shown, it is not given here. [ ]: non-standard residue; d: D form. The star is where a group is joined. FITC = O=C1OC2(c3ccc(O)cc3Oc3cc(O)ccc32)c2ccc(NC(=S)*)cc21
Legend:
[1] = tested on: Celastrol-resistant liver cancer cell line (SNU387^R); assay: Western blotting of PARP and FAK cleavage; format: cell-based; settings: 1 μM peptide 24 hours, then 1 μM and 10 μM Celastrol and Taxol 1 hour, vs cell lines without peptide
Protocol: (§1) In order to examine the effects of AQTGTGKT (SEQ ID NO: 1 synthesized from L-amino acid) or D-AQTGTGKT (SEQ ID NO: 1 synthesized from D-amino acid) peptides on the anticancer drug resistance of cancer cells, MTT assay and western blotting were conducted by a known method.
(§2) Liver cancer cell line (SNU387^R) and melanoma cell line (Malme3M^R), which show resistance to Celastrol as an anticancer drug, were transfected with 1 μM AQTGTGKT (SEQ ID NO: 1 synthesized from L-amino acid) or D-AQTGTGKT (SEQ ID NO: 1 synthesized from D-amino acid) peptide for 24 hours, respectively, and then treated with 1 μM and 10 μM Celastrol and Taxol for 1 hour.

[2] = tested on: Celastrol-resistant melanoma cell line (Malme3M^R); assay: Western blotting of PARP and FAK cleavage; format: cell-based; settings: 1 μM peptide 24 hours, then 1 μM and 10 μM Celastrol and Taxol 1 hour, vs cell lines without peptide
Protocol: as §1, §2

[3] = tested on: GSK3β ser9 and Cyclin D1 in Malme3M^R; assay: Western blotting of GSK3β ser9 and Cyclin D1; format: cell-based
Protocol: (§3) In order to examine the intercellular migration and action mechanisms of AQTGTGKT (SEQ ID NO: 1 synthesized from L-amino acid) and D-AQTGTGKT (SEQ ID NO: 1 synthesized from D-amino acid) peptides, each of the peptides was prepared in a form of being conjugated to fluorescein isothiocyanate (FITC), and used to perform transfection, immunofluorescence, immunoprecipitation, and western blotting by known methods.
(§4) The same cell lines were transfected with AQTGTGKT (SEQ ID NO: 1 synthesized from L-amino acid) or FITC-AQTGTGKT (FITC-SEQ ID NO: 1) peptide, and then subjected to immunoprecipitation and western blotting.
(§5) In addition, the cell lines were transfected with AQTGTGKT (SEQ ID NO: 1 synthesized from L-amino acid) or D-AQTGTGKT (SEQ ID NO: 1 synthesized from D-amino acid) peptide, and then subjected to immunoprecipitation and western blotting.

[4] = tested on: GSK3β ser9 and Cyclin D1 in SNU387^R; assay: Western blotting of GSK3β ser9 and Cyclin D1; format: cell-based
Protocol: as §3, §4, §5

[5] = biological target: T1, CAGE and GSK3β proteins in Malme3M^R (Homo sapiens, UniProt Q86TM3); assay: Immunoprecipitation of CAGE and GSK3β; format: cell-based
T1 construct: Celastrol-resistant liver cancer cell line (SNU387^R) and melanoma cell line (Malme3M^R) having high expression of CAGE; endogenous in cells; host or cells: Malme3M^R (Celastrol-resistant melanoma cell line)
Protocol: as §3, §5

[6] = biological target: T2, CAGE and GSK3β proteins in SNU387^R (Homo sapiens, UniProt Q86TM3); assay: Immunoprecipitation of CAGE and GSK3β; format: cell-based
T2 construct: Celastrol-resistant liver cancer cell line (SNU387^R) and melanoma cell line (Malme3M^R) having high expression of CAGE; endogenous in cells; host or cells: SNU387^R (Celastrol-resistant liver cancer cell line)
Protocol: as §3, §5

Malme3M^R tumor = assay: Tumorigenicity of anticancer drug-resistant cell line in nude mouse; format: in vivo; settings: 10 μg/mouse tail vein, 6 times every 3 days
Protocol: In order to examine that the AQTGTGKT (SEQ ID NO: 1 synthesized from L-amino acid) is a tumor-specific peptide, experiments were carried out by a known method using an anticancer drug-resistant cell line and an immune-deficient mouse.
Celastrol-resistant melanoma cell line (Malme3M^R) having high expression of CAGE was injected into the side of a nude mouse at 1×10^6 cells. When a tumor was grown to have a measurable tumor size, the tumor size was measured using a digital gauge at regular intervals, and the tumor size was calculated using a known formula (widest length×shortest length×0.5).
After the tumor was induced by the above method, AQTGTGKT (SEQ ID NO: 1 synthesized from L-amino acid) peptide (10 μg/mouse) was injected into the tail vein alone or in combination with Celastrol or Taxol anticancer drug in a total of 6 times every 3 days for 2 weeks, while the size of the tumor was measured.

[7] = tested on: CAGE-GSK3β, GSK3β ser9, cyclin D1, MDR1 in tumor tissues; assay: Western blotting and immunoprecipitation of tumor tissues; format: in vivo, nude mouse
Protocol: After the above experiments, the protein expression and activation were examined. The tumor tissues were disrupted by liquid nitrogen according to a known method, reacted with a dissolution buffer on ice for 30 minutes, and centrifuged at 13,000 rpm for 15 minutes, and then the supernatant solution was collected as a protein sample. Thereafter, this protein sample was subjected to western blotting and immunoprecipitation to examine the protein expression and activation and the interconnection of proteins.

[8] = tested on: Malme3M^R tumor metastasis; assay: Lung metastasis of anticancer drug-resistant cell line in nude mouse; format: in vivo; settings: 10 μg/mouse tail vein, 6 times every 3 days from day 4
Protocol: In order to examine the effect of AQTGTGKT (SEQ ID NO: 1 synthesized from L-amino acid) peptide on tumor metastatic ability of an anticancer drug-resistant cell line, long metastasis was carried out using the anticancer drug-resistant cell line and an immunodeficient mouse by a known method.
Celastrol-resistant melanoma cell line (Malme3M^R) having high expression of CAGE was injected into the tail vein of a nude mouse at 1×10^6 cells, and then the metastasis of a tumor into the lung was induced for 2-3 weeks. From day 4 after tumor cell injection, AQTGTGKT (SEQ ID NO: 1 synthesized from L-amino acid) peptide (10 μg/mouse) was injected into the tail vein in a total of 6 times every 3 days, and the lung tissue was excised and the number of tumor nodules was measured by a known method.

[9] = tested on: CAGE-GSK3β, GSK3β ser9, Cyclin D1 in lung tissues; assay: Immunoprecipitation and western blotting of lung tissues; format: in vivo, nude mouse
Text: After the protein was collected from the lung tissues by a conventional method, the protein expression and activation patterns were examined through immunoprecipitation and western blotting.

[10] = tested on: Celastrol-resistant melanoma cell line (Malme3MR); assay: Wound-healing migration assay; format: cell-based; settings: 24-48 hours
Protocol: (§6) In order to examine the effects of AQTGTGKT (SEQ ID NO: 1 synthesized from L-amino acid) and D-AQTGTGKT (SEQ ID NO: 1 synthesized from D-amino acid) peptides on the migration, invasiveness, and angiogenesis inducing ability of anticancer drug-resistant cell line, the invasion assay, wound-healing migration assay, and intravital microscopy were carried out by conventional methods using Celastrol-resistant melanoma cell line (Malme3M^R).
(§7) Celastrol-resistant melanoma cell line (Malme3MR) or Taxol-resistant melanoma cell line (Malme3M^R-Taxol) was cultured in 24-well culture dishes, and wounded using a 1 ml tip by a conventional method, and then the migrating cells were counted for 24-48 hours.

[11] = tested on: Taxol-resistant melanoma cell line (Malme3M^R-Taxol); assay: Wound-healing migration assay; format: cell-based; settings: 24-48 hours
Protocol: as §6, §7

[12] = tested on: angiogenesis inducing ability of Malme3M^R; assay: Angiogenesis, intravital microscopy; format: in vivo; settings: conditioned media of treated Malme3M^R mixed with Matrigel, injected into BALB/C mice
Protocol: as §6
After Celastrol-resistant melanoma cell line (Malme3M^R) was treated with AQTGTGKT (SEQ ID NO: 1 synthesized from L-amino acid) or D-AQTGTGKT (SEQ ID NO: 1 synthesized from D-amino acid) peptide, the obtained conditioned media were mixed with Matrigel and then injected into BALB/C mice, and then the mice were injected with FITC-dextran to examine the effect on angiogenesis using intravital microscopy.

Malme3M^R = assay: Intracellular migration, fluorescent microscope; format: cell-based; settings: 24 hours after transfection
Protocol: as §3
(§8) Celastrol-resistant liver cancer cell line (SNU387^R) and melanoma cell line (Malme3M^R) having high expression of CAGE were transfected with FITC-AQTGTGKT (FITC-SEQ ID NO: 1) peptide, and after 24 hours, the cell lines were examined under a fluorescent microscope.

SNU387^R = assay: Intracellular migration, fluorescent microscope; format: cell-based; settings: 24 hours after transfection
Protocol: as §3, §8

Malme3M^R tumor tissues = assay: Tumor-specific migration (in vivo homing); parameters: species or system immunodeficient mice; settings: 12 hours after tail vein injection; in vivo imaging of extracted tissues
Protocol: In order to examine that the AQTGTGKT (SEQ ID NO: 1 synthesized from L-amino acid) peptide is a tumor-specific peptide, experiments were carried out by a known method using FITC-AQTGTGKT (FITC-SEQ ID NO: 1) and anticancer drug-resistant cell lines and immunodeficient mice.
Celastrol-resistant melanoma cell line (Malme3M^R) having high expression of CAGE was injected into immunodeficient mice by a known method to induce tumors, and then 12 hours after FITC-AQTGTGKT (FITC-SEQ ID NO: 1) was injected into the tail vein, normal tissues (brain, heart, spleen, Liver, lung, etc.) and tumor tissues were extracted and examined using a small in vivo imaging system.

T2 sequence (Q86TM3 whole entry): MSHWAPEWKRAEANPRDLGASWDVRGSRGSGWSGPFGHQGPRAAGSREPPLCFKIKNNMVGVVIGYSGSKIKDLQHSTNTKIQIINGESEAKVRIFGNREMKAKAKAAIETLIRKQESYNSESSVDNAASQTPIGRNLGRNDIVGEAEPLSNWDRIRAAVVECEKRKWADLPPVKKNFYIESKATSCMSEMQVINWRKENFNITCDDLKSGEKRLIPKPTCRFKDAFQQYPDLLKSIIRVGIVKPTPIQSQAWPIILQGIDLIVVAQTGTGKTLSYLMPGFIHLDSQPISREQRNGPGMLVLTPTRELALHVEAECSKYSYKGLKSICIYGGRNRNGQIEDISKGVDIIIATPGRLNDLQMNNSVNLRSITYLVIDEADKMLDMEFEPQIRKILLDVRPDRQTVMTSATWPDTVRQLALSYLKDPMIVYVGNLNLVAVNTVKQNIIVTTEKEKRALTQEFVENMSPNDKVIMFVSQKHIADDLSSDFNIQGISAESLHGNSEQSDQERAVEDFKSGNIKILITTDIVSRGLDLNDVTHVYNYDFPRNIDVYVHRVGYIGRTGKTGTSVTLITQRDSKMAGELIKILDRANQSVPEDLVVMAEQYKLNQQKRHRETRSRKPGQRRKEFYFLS
T1 sequence (Q86TM3 whole entry): as above

AQTGTGKT (listed as Homo sapiens)
reduced: tumorigenicity (tumor size) (Malme3M^R tumor; alone) | anticancer drug resistance (tumor size) (Malme3M^R tumor; in combination with Celastrol or Taxol) | tumor metastasis (number of lung tumor nodules) [8]
significantly observed: cleavage of PARP and FAK proteins [1] | cleavage of PARP and FAK proteins [2]
inhibited: dephosphorylation of GSK3β ser9 [3] | expression of Cyclin D1 [3] | dephosphorylation of GSK3β ser9 [4] | expression of Cyclin D1 [4] | interconnection of CAGE and GSK3β proteins [5] | interconnection of CAGE and GSK3β proteins [6] | expression of MDR1 [7] | interconnection of CAGE and GSK3β proteins [7] | dephosphorylation of GSK3β ser9 [9] | expression of Cyclin D1 [9] | interconnection of CAGE and GSK3β proteins [9] | cell migration [10] | cell migration [11]
remarkably reduced: angiogenesis inducing ability [12]
reductions: GSK3β ser9 dephosphorylation [7] | cyclin D1 expression [7]

D-AQTGTGKT ([dA][dQ][dT]G[dT]G[dK][dT]; listed as Homo sapiens)
inhibited: dephosphorylation of GSK3β ser9 [3] | expression of Cyclin D1 [3] | dephosphorylation of GSK3β ser9 [4] | expression of Cyclin D1 [4] | interconnection of CAGE and GSK3β proteins [5] | interconnection of CAGE and GSK3β proteins [6] | cell migration [10] | cell migration [11]
significantly observed: cleavage of PARP and FAK proteins [1] | cleavage of PARP and FAK proteins [2]
remarkably reduced: angiogenesis inducing ability [12]

FITC-AQTGTGKT ({FITC}-AQTGTGKT; listed as Homo sapiens) [AQTGTGKT peptide conjugated to fluorescein isothiocyanate (FITC)]
inhibited: dephosphorylation of GSK3β ser9 [3] | expression of Cyclin D1 [3] | dephosphorylation of GSK3β ser9 [4] | expression of Cyclin D1 [4]
migrated into the cells: migration of peptide into the cells (Malme3M^R) | migration of peptide into the cells (SNU387^R)
migrated specifically to tumor tissues: migration to tumor tissues vs normal tissues (Malme3M^R tumor tissues)
